Measurements as given in patent publication US20180230127A1 (PFIZER INC., priority 2015, published 2018).
pIC50: −log10 of the molar value. Counter-ions that a name gives are not always drawn.

Target: T1, human IRAK4 kinase domain (aa 154-460) (Homo sapiens, UniProt Q9NWZ3)
T1 construct: human IRAK4 kinase domain (aa 154-460; GenBank ID AF445802)
T1 sequence (Q9NWZ3 154-460): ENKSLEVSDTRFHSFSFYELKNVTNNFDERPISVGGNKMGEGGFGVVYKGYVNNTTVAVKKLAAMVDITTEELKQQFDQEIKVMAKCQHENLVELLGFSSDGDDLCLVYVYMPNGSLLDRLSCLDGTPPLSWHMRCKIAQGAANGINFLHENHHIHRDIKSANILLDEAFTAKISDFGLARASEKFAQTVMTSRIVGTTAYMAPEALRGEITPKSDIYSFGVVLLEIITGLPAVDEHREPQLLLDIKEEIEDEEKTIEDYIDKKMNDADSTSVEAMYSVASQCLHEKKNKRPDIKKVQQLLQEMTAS
Test: IRAK4 Enzymatic DELFIA Assay
Assay type: biochemical
Conditions: 0.6 mM ATP (KM); 114 pM IRAK4 kinase domain; 200 nM substrate; 5% DMSO
Description: IRAK4 Enzymatic DELFIA Assay.
This is an in vitro assay to measure IRAK4 enzymatic activity utilizing the DELFIA (Dissociation-Enhanced Lanthanide Fluorescent Immunoassay, Perkin-Elmer) platform, with the human IRAK4 kinase domain (aa 154-460) construct to characterize IRAK4 inhibitor and control compounds at 0.6 mM ATP (KM). The final amount of enzyme in the assay is 114 pM IRAK4 kinase domain, final concentration of substrate is 200 nM, and final concentration of DMSO is 5%.
The test compound was solubilized in DMSO to a stock concentration of 30 mM. The dose response plates were prepared with a 2 mM primary compound concentration, and then diluted in DMSO in a four-fold series for a total of 10 data points. Compounds were prepared as a 20-fold multiple of the final in-assay concentration
To begin the assay, 45 μL of reaction mixture containing 20 mM HEPES pH=7.5, 5 mM MgCl2, 0.0025% Brij-35, […], 228 pM phosphorylated recombinant human IRAK4 kinase domain (aa 154-460; GenBank ID AF445802) were aliquoted into Ultra-Clear Polypropylene, 96-well, U-Bottom Plates (Corning Life Sciences). 5 μL of test compound from the dose-response plate was added to the reaction mixture and incubated for 15 minutes at room temperature. Then 50 μL of 20 mM HEPES pH=7.5, 5 mM MgCl2, 0.0025% Brij-35, 600 μM ATP, and 400 nM ERM-biotinylated peptide (AGAGRDKYKTLRQIR) were added to start the reaction. The reaction was incubated for 90 minutes at room temperature and stopped by the addition of 25 μL 0.5M EDTA.
100 μL of the reaction mixture was transferred to a streptavidin coated detection plate (EvenCoat Streptavidin Coated Plates, 96-Well, R&D Systems) and incubated for 30 minutes at room temperature. The plates were washed 4 times with 100 μL per well of PBS containing 0.05% Tween-20. Plates were then incubated with 50 μL per well of antibody cocktail of Anti-pERM antibody (Cell Signaling Technology) diluted 1:5000, plus Anti-Rabbit IgG EuN1 at 0.242 μg/ml (Perkin-Elmer Life Sciences) in a solution of 10 mM MOPS pH=7.5, 150 mM NaCl, 0.05% Tween-20, 0.02% NaN3, 1% BSA, 0.1% Gelatin for 45 minutes. The plates were washed 4× with 100 μL per well of PBS containing 0.05% Tween-20. Then 100 μL per well of DELFIA Enhancement Solution were added to the plate and then read on an EnVision Model 2103 using a 340 nm excitation wavelength and a 665 nm emission detection.

| pIC50 | Compound |
| --- | --- |
| 5.90 | CC(C)Oc1cc2c(O[C@H]3CNCC[C@@H]3C)nccc2cc1C(N)=O [Example 70, 1-{[(3R,4S)-4-methylpiperidin-3-yl]oxy}-7-(propan-2-yloxy)isoquinoline-6-carboxamide] |
| 5.86 | NC(=O)c1cc2nccc(O[C@@H]3CCCNC3)c2cc1OC(F)F [Example 67, (R)-6-(difluoromethoxy)-4-(piperidin-3-yloxy)quinoline-7-carboxamide] |
| 5.51 | CC(C)Oc1cc2c(O[C@H]3CCCNC3)nccc2cc1C(N)=O [Example 75, 1-[(3S)-piperidin-3-yloxy]-7-(propan-2-yloxy)isoquinoline-6-carboxamide] |
| 7.42 | CC(C)Oc1cc2c(O[C@@H]3[C@@H]4CC=C[C@H]3NC4=O)nccc2cc1C(N)=O [Example 66, 1-{[(1S,5R,8R)-7-oxo-6-azabicyclo[3.2.1]oct-3-en-8-yl]oxy}-7-(propan-2-yloxy)isoquinoline-6-carboxamide] |

The remaining lines, values behind:

| Compound | pIC50 |
| --- | --- |
| CC(C)Oc1cc2c(O[C@@H]3CCNC[C@@H]3F)ccnc2cc1C(N)=O [Example 20, 1-{[(3S.4R)-3-fluoropiperidin-4-yl]oxy}-7-(propan-2-yloxy)isoquinoline-6-carboxamide] | 6.82 |
| Cc1cc(O[C@@H]2CCCN(C(=O)CO)C2)c2cc(OC(C)C)c(C(N)=O)cc2n1 [Example 42, 4-{[(3R)-1-(hydroxyacetyl)piperidin-3-yl]oxy}-2-methyl-6-(propan-2-yloxy)quinoline-7-carboxamide] | 6.41 |
| CC(C)Oc1cc2c(O[C@@H]3CCCN(C(=O)[C@@H](N)CC#N)C3)ccnc2cc1C(N)=O [Example 46, 4-({(3R)-1-[(2S)-2-amino-3-cyanopropanoyl]piperidin-3-yl}oxy)-6-(propan-2-yloxy)quinoline-7-carboxamide trifluoroacetate] | 7.01 |
| CC(C)Oc1cc2c(O[C@H]3CCNC3)ccnc2cc1C(N)=O [Example 26, 6-(propan-2-yloxy)-4-[(3S)-pyrrolidin-3-yloxy]quinoline-7-carboxamide formate] | 6.02 |
| CC(C)Oc1cc2c(O[C@@H]3CCCN(C(=O)CC#N)C3)ncc(C#N)c2cc1C(N)=O [Example 38, 4-cyano-1-{[(3R)-1-(cyanoacetyl)piperidin-3-yl]oxy}-7-(propan-2-yloxy)isoquinoline-6-carboxamide] | 6.79 |
| Cc1cnc(O[C@@H]2CCCNC2)c2cc(OC(C)C)c(C(N)=O)cc12 [Example 56, 4-methyl-1-[(3R)-piperidin-3-yloxy]-7-(propan-2-yloxy)isoquinoline-6-carboxamide hydrochloride] | 6.54 |
| COc1cc2c(O[C@@H]3CCCNC3)ccnc2cc1C(N)=O [Example 22, 6-methoxy-4-[(3R)-piperidin-3-yloxy]quinoline-7-carboxamide hydrochloride] | 6.37 |
| CC(C)Oc1cc2c(O[C@@H]3CCCN(C(=O)C(F)F)C3)ccnc2cc1C(N)=O [Example 5, 4-{[(3R)-1-(difluoroacetyl)piperidin-3-yl]oxy}-6-(propan-2-yloxy)quinoline-7-carboxamide formate] | 7.46 |
| CC(O)CN1CCC(Oc2nccc3cc(C(N)=O)c(OC(C)C)cc23)CC1 (stereo not shown) [Example 41, 1-{f[1-(2-hydroxypropyl)piperidin-4-yl]oxy}-7-(propan-2-yloxy)isoquinoline-6-carboxamide] | 6.05 |
